Laboratory results taken from article PMC8192900, “Label-free high-throughput screening assay for the identification of norepinephrine transporter (NET/SLC6A2) inhibitors” (Scientific Reports, 2021).
Where two headings read alike, the source gives them in different places.

Key:
JumpIn-NET cells [1] = experiment: Effect of NET inhibitor alone on normalized Cell Index during 1 h pretreatment (xCELLigence); format: cell-based, human; details: +dox JumpIn-NET cells; for Effect on nCI during pretreatment at highest tested concentration: 10 µM
JumpIn-NET cells [2] = experiment: TRACT assay (xCELLigence impedance): substrate-induced cellular response, apparent substrate potency; format: cell-based, human; details: for Decrease of apparent potency in dox-treated compared to vehicle-treated cells: +dox vs −dox JumpIn-NET cells; for EC50: Homo sapiens
[3] = doxycycline-treated (+dox) JumpIn-NET cells, 1 h pretreatment with 1 µM nisoxetine, read-out: Apparent potency pEC50 ± SEM (converted)
[4] = vehicle-treated (−dox) JumpIn-NET cells, no nisoxetine pretreatment, net AUC first 30 min, read-out: Apparent potency pEC50 ± SEM (converted)

SMILES: CNCCC(Oc1ccccc1OC)c1ccccc1.Cl (centres unmarked) [Nisoxetine, Nisoxetine hydrochloride]
- Effect on nCI during the 1 h pretreatment (JumpIn-NET cells [1]; 1 µM): did not affect the nCI
- Effect on nCI during pretreatment at highest tested concentration (JumpIn-NET cells [1]): transient increase in nCI

SMILES: CNCC[C@@H](Oc1ccccc1C)c1ccccc1.Cl [Atomoxetine, atomoxetine hydrochloride]
- Effect on nCI during pretreatment at highest tested concentration (JumpIn-NET cells [1]): transient increase in nCI

SMILES: Cl.NCCc1ccc(O)c(O)c1 [DA, dopamine hydrochloride]
- Decrease of apparent potency in dox-treated compared to vehicle-treated cells (JumpIn-NET cells [2]): twofold lower
- EC50 (JumpIn-NET cells [2]; [3]): 39800 nM
- EC50 (JumpIn-NET cells [2]; [4]): 7940 nM

SMILES: CNC[C@H](O)c1ccc(O)c(O)c1.O=C(O)C(O)C(O)C(=O)O [EP, (−)-epinephrine (+)-bitartrate salt]
- Basal response in vehicle-pretreated cells, higher than that of NE (JumpIn-NET cells [2]; 1 µM substrate (EC20), +dox cells, no inhibitor): approximately 60%
- Decrease of apparent potency in dox-treated compared to vehicle-treated cells (JumpIn-NET cells [2]): decreased tenfold
- EC50 (JumpIn-NET cells [2]; read-out: Apparent potency pEC50 ± SEM, doxycycline-treated (+dox) JumpIn-NET cells, 1 h pretreatment with 1 µM nisoxetine (converted)): 501 nM
- EC50 (JumpIn-NET cells [2]; read-out: Apparent potency pEC50 ± SEM, doxycycline-treated (+dox) JumpIn-NET cells, no nisoxetine pretreatment (converted)): 3980 nM
- EC50 (JumpIn-NET cells [2]; read-out: Apparent potency pEC50 ± SEM, vehicle-treated (−dox) JumpIn-NET cells, no nisoxetine pretreatment (converted), net AUC first 30 min): 398 nM

SMILES: CC(NC(C)(C)C)C(=O)c1cccc(Cl)c1.Cl (centres unmarked) [Bupropion, bupropion hydrochloride]
- Effect on nCI during pretreatment at highest tested concentration (JumpIn-NET cells [1]): transient increase in nCI
